Experiments:
[1] = molecular target: Acetylcholinesterase (Electrophorus electricus, UniProt O42275); test: Inhibition of electric eel AChE using acetylthiocholine iodide as substrate preincubated with enzyme for 6 mins followed by substrate addition by Ellman's method
[2] = molecular target: Cholinesterase (Equus caballus, UniProt P81908); test: Inhibition of BuChE in equine serum using S-butyrylthiocholine iodide as substrate preincubated with enzyme for 6 mins followed by substrate addition by Ellman's method
[3] = Selectivity index, ratio of IC50 for BuChE in equine serum to IC50 for electric eel AChE
[4] = molecular target: Acetylcholinesterase (Homo sapiens, UniProt P22303); test: Inhibition of AChE in human erythrocytes using acetylthiocholine iodide as substrate preincubated with enzyme for 20 mins followed by substrate addition by Ellman's method; type: cell-based
[5] = molecular target: Cholinesterase (Homo sapiens, UniProt P06276); test: Inhibition of BuChE in human serum using S-butyrylthiocholine iodide as substrate preincubated with enzyme for 20 mins followed by substrate addition by Ellman's method
[6] = molecular target: Amyloid-beta precursor protein (Homo sapiens) (UniProt P05067); test: Inhibition of amyloid beta (1 to 42) (unknown origin) self-aggregation at 20 uM after 46 to 48 hrs by thioflavin T based fluorometric assay
[7] = species: Homo sapiens; test: Selectivity index, ratio of IC50 for BuChE in human serum to IC50 for AChE in human erythorcytes; type: cell-based
[8] = Cytotoxicity against human SH-SY5Y cells assessed as cell viability at 0.1 uM after 24 hrs by MTT assay; type: cell-based; conditions: read-out: Activity
[9] = Cytotoxicity against human SH-SY5Y cells assessed as cell viability at 0.5 uM after 24 hrs by MTT assay; type: cell-based; conditions: read-out: Activity
[10] = Cytotoxicity against human SH-SY5Y cells assessed as cell viability at 1 uM after 24 hrs by MTT assay; type: cell-based; conditions: read-out: Activity
[11] = Cytotoxicity against human SH-SY5Y cells assessed as cell viability at 2 uM after 24 hrs by MTT assay; type: cell-based; conditions: read-out: Activity
[12] = Cytotoxicity against human SH-SY5Y cells assessed as cell viability at 5 uM after 24 hrs by MTT assay; type: cell-based; conditions: read-out: Activity
[13] = Cytotoxicity against human SH-SY5Y cells assessed as cell viability at 10 uM after 24 hrs by MTT assay; type: cell-based; conditions: read-out: Activity

Sequence of Cholinesterase (Homo sapiens, UniProt P06276) (P06276 whole entry): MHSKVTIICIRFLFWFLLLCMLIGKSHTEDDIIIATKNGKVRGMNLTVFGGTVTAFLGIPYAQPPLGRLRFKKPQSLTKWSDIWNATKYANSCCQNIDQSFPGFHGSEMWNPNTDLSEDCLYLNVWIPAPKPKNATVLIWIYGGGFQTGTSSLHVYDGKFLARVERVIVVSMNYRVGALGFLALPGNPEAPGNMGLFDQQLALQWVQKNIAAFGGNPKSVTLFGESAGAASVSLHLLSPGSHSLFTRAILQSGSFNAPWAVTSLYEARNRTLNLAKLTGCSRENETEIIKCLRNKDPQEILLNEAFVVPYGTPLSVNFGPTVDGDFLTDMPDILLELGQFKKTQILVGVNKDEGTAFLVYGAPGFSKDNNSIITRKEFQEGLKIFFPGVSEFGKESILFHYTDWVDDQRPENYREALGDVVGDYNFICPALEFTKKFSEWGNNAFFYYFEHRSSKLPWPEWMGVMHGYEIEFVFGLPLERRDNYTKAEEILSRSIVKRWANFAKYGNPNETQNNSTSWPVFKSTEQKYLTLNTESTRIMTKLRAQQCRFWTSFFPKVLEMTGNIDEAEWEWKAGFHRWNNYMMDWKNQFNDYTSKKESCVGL
Sequence of Acetylcholinesterase (Homo sapiens, UniProt P22303) (P22303 whole entry): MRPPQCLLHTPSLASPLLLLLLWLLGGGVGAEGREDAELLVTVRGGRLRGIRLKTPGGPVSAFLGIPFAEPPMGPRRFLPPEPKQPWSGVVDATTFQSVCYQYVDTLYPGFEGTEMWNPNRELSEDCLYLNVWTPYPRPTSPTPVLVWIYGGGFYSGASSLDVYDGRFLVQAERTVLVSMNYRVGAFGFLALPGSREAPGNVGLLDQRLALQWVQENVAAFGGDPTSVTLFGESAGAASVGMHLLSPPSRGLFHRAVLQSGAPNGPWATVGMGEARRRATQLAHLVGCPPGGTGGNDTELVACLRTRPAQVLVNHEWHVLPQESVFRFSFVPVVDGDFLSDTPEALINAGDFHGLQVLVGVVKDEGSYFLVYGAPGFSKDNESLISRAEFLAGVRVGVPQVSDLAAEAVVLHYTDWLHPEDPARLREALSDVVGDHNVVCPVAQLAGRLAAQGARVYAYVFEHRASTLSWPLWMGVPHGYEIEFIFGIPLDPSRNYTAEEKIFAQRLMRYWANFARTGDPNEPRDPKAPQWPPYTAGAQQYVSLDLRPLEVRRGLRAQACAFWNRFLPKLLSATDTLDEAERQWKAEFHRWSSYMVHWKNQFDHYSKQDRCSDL
Sequence of Cholinesterase (Equus caballus, UniProt P81908) (P81908 whole entry): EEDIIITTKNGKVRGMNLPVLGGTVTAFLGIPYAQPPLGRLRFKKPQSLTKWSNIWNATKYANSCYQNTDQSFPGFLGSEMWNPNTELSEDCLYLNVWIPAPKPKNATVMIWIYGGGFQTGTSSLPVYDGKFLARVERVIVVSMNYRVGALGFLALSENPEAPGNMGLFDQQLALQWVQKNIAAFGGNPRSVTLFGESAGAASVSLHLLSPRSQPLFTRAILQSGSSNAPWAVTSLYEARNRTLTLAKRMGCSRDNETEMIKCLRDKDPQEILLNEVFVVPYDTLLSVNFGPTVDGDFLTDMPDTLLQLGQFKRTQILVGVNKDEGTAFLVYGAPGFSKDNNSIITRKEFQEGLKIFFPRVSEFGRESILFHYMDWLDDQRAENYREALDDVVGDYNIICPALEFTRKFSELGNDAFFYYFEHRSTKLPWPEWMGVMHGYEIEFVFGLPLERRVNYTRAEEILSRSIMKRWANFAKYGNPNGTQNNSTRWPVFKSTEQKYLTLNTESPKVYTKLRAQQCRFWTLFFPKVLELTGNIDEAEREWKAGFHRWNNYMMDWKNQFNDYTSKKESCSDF
Sequence of Acetylcholinesterase (Electrophorus electricus, UniProt O42275) (O42275 whole entry): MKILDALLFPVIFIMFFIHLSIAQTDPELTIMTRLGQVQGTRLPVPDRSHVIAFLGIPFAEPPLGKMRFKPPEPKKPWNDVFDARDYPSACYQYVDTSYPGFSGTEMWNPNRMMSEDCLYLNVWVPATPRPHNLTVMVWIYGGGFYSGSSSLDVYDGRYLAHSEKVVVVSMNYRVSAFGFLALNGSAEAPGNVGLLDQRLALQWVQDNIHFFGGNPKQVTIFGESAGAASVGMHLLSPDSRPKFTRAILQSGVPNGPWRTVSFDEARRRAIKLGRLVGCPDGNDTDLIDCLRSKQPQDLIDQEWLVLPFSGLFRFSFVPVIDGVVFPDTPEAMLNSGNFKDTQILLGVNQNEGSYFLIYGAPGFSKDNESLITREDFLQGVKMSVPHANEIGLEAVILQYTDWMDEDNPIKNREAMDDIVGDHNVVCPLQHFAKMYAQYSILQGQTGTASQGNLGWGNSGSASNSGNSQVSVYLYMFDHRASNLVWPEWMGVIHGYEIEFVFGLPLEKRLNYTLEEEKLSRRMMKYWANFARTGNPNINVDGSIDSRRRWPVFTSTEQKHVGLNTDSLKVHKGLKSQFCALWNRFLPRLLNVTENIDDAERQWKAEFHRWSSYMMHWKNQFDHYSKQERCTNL
Sequence of Amyloid-beta precursor protein (Homo sapiens) (P05067 whole entry): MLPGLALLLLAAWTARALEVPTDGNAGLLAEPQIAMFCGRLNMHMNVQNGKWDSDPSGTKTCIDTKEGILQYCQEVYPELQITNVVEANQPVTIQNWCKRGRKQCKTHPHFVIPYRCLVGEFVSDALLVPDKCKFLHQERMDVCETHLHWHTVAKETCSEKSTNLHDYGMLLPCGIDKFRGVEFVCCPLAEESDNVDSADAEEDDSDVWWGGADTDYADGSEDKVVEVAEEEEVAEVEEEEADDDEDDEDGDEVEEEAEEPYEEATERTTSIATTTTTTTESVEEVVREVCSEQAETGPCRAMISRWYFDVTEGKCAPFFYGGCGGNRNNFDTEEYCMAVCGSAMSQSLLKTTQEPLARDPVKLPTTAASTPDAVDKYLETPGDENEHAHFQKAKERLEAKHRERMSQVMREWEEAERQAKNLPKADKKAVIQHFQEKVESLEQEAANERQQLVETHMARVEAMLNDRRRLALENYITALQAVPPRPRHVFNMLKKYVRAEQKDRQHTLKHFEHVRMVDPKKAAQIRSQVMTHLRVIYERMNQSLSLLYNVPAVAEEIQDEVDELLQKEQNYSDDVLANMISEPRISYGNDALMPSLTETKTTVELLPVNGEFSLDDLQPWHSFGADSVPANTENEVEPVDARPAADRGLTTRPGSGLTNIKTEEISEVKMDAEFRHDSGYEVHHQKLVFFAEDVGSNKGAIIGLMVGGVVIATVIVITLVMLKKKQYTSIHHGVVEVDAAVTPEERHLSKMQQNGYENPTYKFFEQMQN

`COc1cc2c(cc1OC)C(Cc1ccc(OCCCCCCN3CCC(c4ccccc4)CC3)cc1)NCC2` (configuration not stated) gave an IC50 [1] of 6.69 µM, an IC50 [2] of 7.99 µM and a Ratio IC50 [3] of 1.19. The IC50 [4] was 9.33 µM, the IC50 [5] was 9.29 µM and the inhibition [6] was 61.2%.

In the case of `CCN(CC)CCCOc1ccc(CC2NCCc3cc(OC)c(OC)cc32)cc1` (configuration not stated), the IC50 [1] is reported as 13.2 µM, the IC50 [2] is reported as 20.8 µM and the Ratio IC50 [3] is reported as 1.57. It also gave an inhibition [6] of 41.1%.

Work on `COc1cc2c(cc1OC)C(Cc1ccc(OCCCCCCN3CCCC3C)cc1)NCC2` (configuration not stated) yielded an IC50 [1] of 1.34 µM, an IC50 [2] of 3.35 µM and a Ratio IC50 [3] of 2.5. The IC50 [4] was 4.5 µM, the IC50 [5] was 6.42 µM and the Ratio IC50 [7] was 1.43. It also gave an inhibition [6] of 72.3%.

For `COc1cc2c(cc1OC)C(Cc1ccc(O)cc1)NCC2` (configuration not stated), the IC50 [1] was > 100 µM, the IC50 [2] was 39.7 µM and the IC50 [4] was > 100 µM. For the same compound, the IC50 [5] was 46.8 µM and the inhibition [6] was 36%.

For `COc1cc2c(cc1OC)C(Cc1ccc(OCCCCCCN3CCN(c4ccccc4)CC3)cc1)NCC2` (configuration not stated), the IC50 [1] was 17.1 µM, the IC50 [2] was 8.78 µM and the Ratio IC50 [3] was 0.51. The IC50 [4] was 16.3 µM, the IC50 [5] was 12.9 µM and the inhibition [6] was 65.8%.

In the case of `CCCCN(CCCC)CCCCCCOc1ccc(CC2NCCc3cc(OC)c(OC)cc32)cc1` (configuration not stated), the IC50 [1] is reported as 3.43 µM, the IC50 [2] is reported as 3.46 µM and the Ratio IC50 [3] is reported as 1.01. It also gave an IC50 [4] of 3.85 µM, an IC50 [5] of 6.02 µM and a Ratio IC50 [7] of 1.56. For the same compound, the inhibition [6] was 51.4%.

In the case of `COc1cc2c(cc1OC)C(Cc1ccc(OCCCCCCN3CCCCC3C)cc1)NCC2` (configuration not stated), the IC50 [1] is reported as 0.95 µM, the IC50 [2] is reported as 3.13 µM and the Ratio IC50 [3] is reported as 3.29. For the same compound, the IC50 [4] was 2.2 µM, the IC50 [5] was 5.83 µM and the Ratio IC50 [7] was 1.49. For the same compound, the inhibition [6] was 78.4%, the viability at 24 h, 0.1 µM [8] was 96.8% and the viability at 24 h, 0.5 µM [9] was 98.8%. The viability at 24 h, 1 µM [10] was 96.8%, the viability at 24 h, 2 µM [11] was 96.1% and the viability at 24 h, 5 µM [12] was 94.5%. The viability at 24 h, 10 µM [13] was 91.1%.

Compound `COc1cc2c(cc1OC)C(Cc1ccc(OCCCCCCN(C)C)cc1)NCC2` (configuration not stated) has an IC50 [1] of 3.14 µM, an IC50 [2] of 8.65 µM and a Ratio IC50 [3] of 2.75. It also gave an IC50 [4] of 7.13 µM, an IC50 [5] of 3.43 µM and a Ratio IC50 [7] of 0.48. For the same compound, the inhibition [6] was 55.3%.

Work on `CCN(CC)CCCCCOc1ccc(CC2NCCc3cc(OC)c(OC)cc32)cc1` (configuration not stated) yielded an IC50 [1] of 7.02 µM, an IC50 [2] of 10.3 µM and a Ratio IC50 [3] of 1.46. It also gave an inhibition [6] of 34.3%.

`COc1cc2c(cc1OC)C(Cc1ccc(OCCCCCCN3CCCCC3)cc1)NCC2` (configuration not stated) gave an IC50 [1] of 1.14 µM, an IC50 [2] of 2.51 µM and a Ratio IC50 [3] of 1.96. It also gave an IC50 [4] of 2.14 µM, an IC50 [5] of 3.25 µM and a Ratio IC50 [7] of 1.69. It also gave an inhibition [6] of 76.4%.

For `CCN(CC)CCCCCCCCOc1ccc(CC2NCCc3cc(OC)c(OC)cc32)cc1` (configuration not stated), the IC50 [1] was 6.33 µM, the IC50 [2] was 20.1 µM and the Ratio IC50 [3] was 3.17. It also gave an inhibition [6] of 39.6%.

With `COc1cc2c(cc1OC)C(Cc1ccc(OCCCCCCN3CCN(Cc4ccccc4)CC3)cc1)NCC2` (configuration not stated) the IC50 [1] was 53.5 µM, the IC50 [2] was 10.5 µM and the Ratio IC50 [3] was 0.2. The IC50 [4] was 5.59 µM, the IC50 [5] was 21.7 µM and the Ratio IC50 [7] was 3.88. For the same compound, the inhibition [6] was 61.4%.

`CCN(CC)CCCCCCOc1ccc(CC2NCCc3cc(OC)c(OC)cc32)cc1` (configuration not stated) showed an IC50 [1] of 2.28 µM, an IC50 [2] of 4.95 µM and a Ratio IC50 [3] of 2.17. It also gave an IC50 [4] of 4.99 µM, an IC50 [5] of 16.7 µM and a Ratio IC50 [7] of 3.35. For the same compound, the inhibition [6] was 56.4%.

`CCCN(CCC)CCCCCCOc1ccc(CC2NCCc3cc(OC)c(OC)cc32)cc1` (configuration not stated) showed an IC50 [1] of 3.01 µM, an IC50 [2] of 4.32 µM and a Ratio IC50 [3] of 1.44. The IC50 [4] was 3.46 µM, the IC50 [5] was 11.2 µM and the Ratio IC50 [7] was 3.23. For the same compound, the inhibition [6] was 51.2%.

`CCN(CC)CCCCCCCOc1ccc(CC2NCCc3cc(OC)c(OC)cc32)cc1` (configuration not stated) gave an IC50 [1] of 4.67 µM, an IC50 [2] of 9.13 µM and a Ratio IC50 [3] of 1.96. The inhibition [6] was 43.9%.

For `COc1cc2c(cc1OC)C(Cc1ccc(OCCCCCCN3CCC(O)CC3)cc1)NCC2` (configuration not stated), the IC50 [1] was 13.3 µM, the IC50 [2] was 14.2 µM and the Ratio IC50 [3] was 1.07. It also gave an IC50 [4] of 9.59 µM, an IC50 [5] of 23.7 µM and a Ratio IC50 [7] of 2.47. It also gave an inhibition [6] of 62.1%.

Compound `COc1cc2c(cc1OC)C(Cc1ccc(OCCCCCCN3CCC(O)(Cc4ccccc4)CC3)cc1)NCC2` (configuration not stated) has an IC50 [1] of 41.7 µM, an IC50 [2] of 12.8 µM and a Ratio IC50 [3] of 0.31. For the same compound, the IC50 [4] was 39.6 µM, the IC50 [5] was 15.9 µM and the Ratio IC50 [7] was 0.4. For the same compound, the inhibition [6] was 62.7%.

In the case of `COc1cc2c(cc1OC)C(Cc1ccc(OCCCCCCN3CCCC3)cc1)NCC2` (configuration not stated), the IC50 [1] is reported as 1.28 µM, the IC50 [2] is reported as 2.34 µM and the Ratio IC50 [3] is reported as 2.05. The IC50 [4] was 2.98 µM, the IC50 [5] was 2.27 µM and the Ratio IC50 [7] was 0.76. It also gave an inhibition [6] of 69%.

With `COc1cc2c(cc1OC)C(Cc1ccc(OCCCCCCN3CCOCC3)cc1)NCC2` (configuration not stated) the IC50 [1] was 28.6 µM, the IC50 [2] was 13 µM and the Ratio IC50 [3] was 0.45. The IC50 [4] was 35.5 µM, the IC50 [5] was 10.6 µM and the Ratio IC50 [7] was 0.29. It also gave an inhibition [6] of 57.4%.

`CCN(CC)CCCCOc1ccc(CC2NCCc3cc(OC)c(OC)cc32)cc1` (configuration not stated) showed an IC50 [1] of 7.58 µM, an IC50 [2] of 15.3 µM and a Ratio IC50 [3] of 2.02. The inhibition [6] was 47.3%.

Reference: ChEMBL document CHEMBL3259766, “Design, synthesis and biological evaluation of benzylisoquinoline derivatives as multifunctional agents against Alzheimer's disease” (Bioorg Med Chem Lett, 2014)
